These results are taken from PMC9508125, “The evolutionary advantage of an aromatic clamp in plant family 3 glycoside exo-hydrolases” (Nature Communications, 2022).

Each structure is given as a SMILES string. Residue numbers refer to the chain shown, from its start.

Common to all, as to test: Relative rates of hydrolysis of poly-, oligosaccharides and aryl-glycosides
Holding throughout (assay type): biochemical

The target in one assay is T1, HvExoI W286Y mutant (Hordeum vulgare, UniProt Q9XEI3, W311Y).
T1 sequence (Q9XEI3 26-630 W311Y): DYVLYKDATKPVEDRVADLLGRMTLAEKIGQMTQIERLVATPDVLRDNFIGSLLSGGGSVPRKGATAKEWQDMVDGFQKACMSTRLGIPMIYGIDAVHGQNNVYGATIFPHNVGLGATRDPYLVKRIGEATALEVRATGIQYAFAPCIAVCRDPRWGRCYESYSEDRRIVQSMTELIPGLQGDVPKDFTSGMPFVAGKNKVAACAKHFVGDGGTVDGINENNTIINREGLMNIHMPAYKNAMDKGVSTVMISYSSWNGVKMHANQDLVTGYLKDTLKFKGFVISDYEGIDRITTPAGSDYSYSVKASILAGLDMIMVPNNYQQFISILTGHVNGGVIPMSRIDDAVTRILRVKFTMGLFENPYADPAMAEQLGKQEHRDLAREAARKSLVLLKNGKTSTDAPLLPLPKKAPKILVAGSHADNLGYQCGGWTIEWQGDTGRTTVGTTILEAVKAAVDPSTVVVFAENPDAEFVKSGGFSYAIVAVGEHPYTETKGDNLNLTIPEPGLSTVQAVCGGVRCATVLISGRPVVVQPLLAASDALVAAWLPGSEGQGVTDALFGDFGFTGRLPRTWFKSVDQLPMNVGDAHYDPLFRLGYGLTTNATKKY
The settings on record: substance is the substrate, nd = activity not detected. The essentials:
(§1)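 Near-homogeneous HvExoI at 50 pmoles was used to compare hydrolysis rates across β-linked glycosides. Kinetic parameters were obtained by weighted nonlinear Michaelis-Menten regression.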

Assay [1] addresses T2, HvExoI W286F/W434F mutant (Hordeum vulgare, UniProt Q9XEI3, W311F/W459F).
T2 sequence (Q9XEI3 26-630 W311F/W459F): T1 sequence (Q9XEI3 26-630 W311Y) with Y286F, W434F
The settings on record: substance is the substrate, nd = activity not detected. The method in brief: as §1

Assay [2] addresses T3, HvExoI W286F/W434A mutant (Hordeum vulgare, UniProt Q9XEI3, W311F/W459A).
T3 sequence (Q9XEI3 26-630 W311F/W459A): T1 sequence (Q9XEI3 26-630 W311Y) with Y286F, W434A
The settings on record: substance is the substrate, nd = activity not detected. The method in brief: as §1

The target of another assay is T4, HvExoI W434Y mutant (Hordeum vulgare, UniProt Q9XEI3, W459Y).
T4 sequence (Q9XEI3 26-630 W459Y): T1 sequence (Q9XEI3 26-630 W311Y) with Y286W, W434Y
The settings on record: substance is the substrate, nd = activity not detected. The method in brief: as §1

The next assay has as its target WT HvExoI (Hordeum vulgare, UniProt Q9XEI3). The following applies: substance is the substrate, HvExoI at 50 pmoles, nd = activity not detected. The method in brief: as §1

Sequence of WT HvExoI (Q9XEI3 entry or part of it): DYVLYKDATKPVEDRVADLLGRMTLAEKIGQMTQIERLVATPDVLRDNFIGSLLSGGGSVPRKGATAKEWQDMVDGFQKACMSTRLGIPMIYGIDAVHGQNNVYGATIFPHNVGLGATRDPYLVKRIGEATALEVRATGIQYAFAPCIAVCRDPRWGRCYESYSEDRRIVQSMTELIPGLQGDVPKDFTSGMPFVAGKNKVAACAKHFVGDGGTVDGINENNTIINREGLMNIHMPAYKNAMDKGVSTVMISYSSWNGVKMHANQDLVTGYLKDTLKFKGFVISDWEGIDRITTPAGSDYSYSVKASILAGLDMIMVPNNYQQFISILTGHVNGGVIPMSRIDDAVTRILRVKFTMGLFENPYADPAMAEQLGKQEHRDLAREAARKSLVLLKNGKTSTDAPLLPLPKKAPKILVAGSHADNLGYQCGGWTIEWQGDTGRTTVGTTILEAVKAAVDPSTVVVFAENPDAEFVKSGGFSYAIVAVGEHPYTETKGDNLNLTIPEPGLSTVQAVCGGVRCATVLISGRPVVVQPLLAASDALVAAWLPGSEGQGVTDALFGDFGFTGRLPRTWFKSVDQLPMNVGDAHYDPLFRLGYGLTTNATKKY

Turning to `OC[C@H]1O[C@@H](O[C@H]2[C@H](O)[C@@H](O)[C@H](O[C@H]3[C@H](O)[C@@H](O)C(O)O[C@@H]3CO)O[C@@H]2CO)[C@H](O)[C@@H](O)[C@@H]1O` (some centres unmarked) [Cellotriose], the “Activity (relative rate of hydrolysis)” value on HvExoI W286Y mutant turned out to be 5.6 ± 0.1 μmole/min per mg protein; in assay [1] it was 0.02 ± 0.002 μmole/min per mg protein; in assay [2] it was 0.01 ± 0.001 μmole/min per mg protein; on HvExoI W434Y mutant, 0.1 ± 0.02 μmole/min per mg protein; at WT HvExoI it was 8.8 ± 0.4 μmole/min per mg protein.
